Several values for one entry are separate records, joined by “and”; a condition that tells them apart may be missing. Identical values can stand only once.

The target in one data set is T1, PXR (Homo sapiens, UniProt O75469).
T1 sequence (O75469 1-434): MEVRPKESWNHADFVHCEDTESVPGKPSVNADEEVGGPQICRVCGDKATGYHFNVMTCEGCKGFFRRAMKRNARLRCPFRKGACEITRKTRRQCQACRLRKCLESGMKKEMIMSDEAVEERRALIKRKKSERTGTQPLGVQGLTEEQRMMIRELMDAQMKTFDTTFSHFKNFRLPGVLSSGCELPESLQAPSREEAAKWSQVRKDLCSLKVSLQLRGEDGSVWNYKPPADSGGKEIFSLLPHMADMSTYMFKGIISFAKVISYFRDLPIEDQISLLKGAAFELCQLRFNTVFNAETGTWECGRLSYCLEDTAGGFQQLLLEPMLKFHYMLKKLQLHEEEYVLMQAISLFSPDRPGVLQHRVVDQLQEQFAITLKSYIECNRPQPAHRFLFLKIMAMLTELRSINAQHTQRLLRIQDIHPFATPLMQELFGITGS
Description: PXR-responsive CYP3A4 promoter luciferase reporter assay in HepG2, inverse agonist mode (basal activity). The format is cell-based. More on the design: expressed in transfected cells; host or cells: HepG2. The note with it: for PXR inverse agonism: decrease of basal activity in %: tested at 10 μM, DMSO (0.1%) = 100% basal activity. How it is done: (§1) Rhesus monkey, mouse, and rat PXR expression vectors (100 ng/well each) were also obtained from GenScript. […] Carlberg (University of Kuopio, Kuopio, Finland).
(§2) The cells were cultured in DMEM medium (Merck) supplemented with 10% fetal bovine serum.

The target in data set [1] is T2, human wild-type CAR (CARwt) (Homo sapiens, UniProt Q14994).
T2 construct: expressed in transfected cells; host or cells: HepG2
T2 sequence (Q14994 1-348 isoform Q14994-2): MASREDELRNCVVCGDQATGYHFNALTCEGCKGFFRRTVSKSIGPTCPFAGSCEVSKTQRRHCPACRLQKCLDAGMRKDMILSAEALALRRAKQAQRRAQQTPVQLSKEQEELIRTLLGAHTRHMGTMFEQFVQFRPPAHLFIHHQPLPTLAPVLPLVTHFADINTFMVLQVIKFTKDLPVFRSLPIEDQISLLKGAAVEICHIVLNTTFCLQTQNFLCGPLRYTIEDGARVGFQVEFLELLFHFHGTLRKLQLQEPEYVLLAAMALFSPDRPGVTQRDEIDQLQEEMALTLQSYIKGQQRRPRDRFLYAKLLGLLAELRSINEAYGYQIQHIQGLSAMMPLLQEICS
Description: CARwt luciferase reporter gene assay in HepG2. The data set is classed as cell-based. On the procedure: as §1, §2
For orientation: Reporter assays use an easily measured gene product as a stand-in for the process of interest.

The target in the next data set is rhesus monkey PXR (oPXR) (Macaca mulatta, UniProt Q8SQ01). Nature of the data set: Rhesus monkey PXR luciferase reporter assay. The data set is classed as cell-based. The settings on record: rifampicin as prototypical inducer. How it is done: The CYP3A4 gene promoter luciferase reporter construct (p3A4-luc) bears a distal XREM (−7836/–7208) and a proximal promoter sequence (prPXRE, −362/+53) from the CYP3A4 gene promoter region. […] The human PXR expression vector (variant 1, NM_003889.3) as well as vectors for mouse, rat, and monkey orthologues were described in our recent paper (39). […] Rhesus monkey, mouse, and rat PXR expression vectors (100 ng/well each) were also obtained from GenScript. […] Carlberg (University of Kuopio, Kuopio, Finland).
rhesus monkey PXR (oPXR), sequence (Q8SQ01 whole entry): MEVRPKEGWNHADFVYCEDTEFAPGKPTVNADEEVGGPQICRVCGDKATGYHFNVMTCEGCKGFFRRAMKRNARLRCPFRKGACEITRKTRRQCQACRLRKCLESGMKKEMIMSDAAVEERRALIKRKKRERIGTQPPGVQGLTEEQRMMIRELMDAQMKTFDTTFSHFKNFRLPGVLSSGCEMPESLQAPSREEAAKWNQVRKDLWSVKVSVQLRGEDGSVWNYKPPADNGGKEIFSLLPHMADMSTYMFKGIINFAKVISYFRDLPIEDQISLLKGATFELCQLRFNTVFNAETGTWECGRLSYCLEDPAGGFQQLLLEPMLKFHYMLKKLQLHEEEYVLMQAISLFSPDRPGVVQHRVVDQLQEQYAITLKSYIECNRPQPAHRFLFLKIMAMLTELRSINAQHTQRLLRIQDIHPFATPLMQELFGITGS
as §2

A further data set relates to MOLT4 cells. Description: Off-target quantitative global proteomics in MOLT4 cells. The data set is classed as cell-based, human. How it is done: Cells were lysed by the addition of lysis buffer (8 M Urea, 50 mM NaCl, 50 mM […] (EPPS) pH 8.5, Protease and Phosphatase inhibitors) and homogenization by bead beating (BioSpec) for three repeats of 30 s at 2400. Bradford assay was used to determine the final protein concentration in the clarified cell lysate. 50 μg of protein for each sample was reduced, alkylated, and precipitated using methanol/chloroform as previously described and the resulting washed precipitated protein was allowed to air-dry. Precipitated protein was resuspended in 4 M Urea, 50 mM HEPES pH 7.4, followed by dilution to <1 M urea with the addition of 200 mM EPPS, pH 8. Proteins were digested overnight at 37 °C with LysC (1:50; enzyme:protein) and trypsin (1:50; enzyme:protein). Sample digests were acidified with formic acid to a pH of 2–3 prior to desalting using C18 solid-phase extraction plates (SOLA, Thermo Fisher Scientific). Desalted peptides were dried in a vacuum-centrifuge and reconstituted in 0.1% formic acid for LC-MS analysis. […]
The diaPASEF raw file processing and controlling peptide and protein level false discovery rates, assembling proteins from peptides, and protein quantification from peptides were performed using library-free analysis in DIA-NN 1.8. […]

With `NC(=O)c1cc(Cn2cc(-c3c(-c4ccc(Cl)cc4)nc4c(F)cc(F)cn34)nn2)ccc1Cl` [Compound 11, 2-Chloro-5-((4-(2-(4-chlorophenyl)-6,8-difluoroimidazo[1,2-a]pyridin-3-yl)-1H-1,2,3-triazol-1-yl)methyl)-benzamide], on PXR (HepG2, at 10 μM, read-out: maximal inhibition (inverse agonism)), the inhibition (in general, the drop in the measured response relative to a control, in per cent) at 10 µM turned out to be 68.8 ± 5.5%. In addition, the half-inhibitory concentration (IC50) – broadly, the concentration at which inhibition is half-maximal – on PXR (compound alone, HepG2, read-out: IC50, inverse agonistic activity) worked out at 6.1 µM. The “PXR inverse agonism: decrease of basal activity in %” value at PXR is recorded as “(-68.84±5.53) %”; at PXR (listed as 11 (MI891)), “–68.84 ± 5.53%”. Further, the half-maximal effective concentration (EC50) – broadly, the midpoint of the concentration-response curve – in data set [1] (HepG2, read-out: CARwt activation EC50) is ~137 µM and 137 µM. The “activation of CARwt” value in data set [1] (at concentrations up to 10 μM) was “no significant activation”. The “activity on rhesus monkey PXR (oPXR)” value at rhesus monkey PXR (oPXR) was “full agonism”.

As for “N-(4-((1-(2,5-dimethoxyphenyl)-5-methyl-1H-1,2,3-triazol-4-yl)sulfonyl)phenyl)-3-(2-(2-(2-(4-(((2-(2,6-dioxopiperidin-3-yl)-1,3-dioxoisoindolin-4-yl)amino)methyl)-1H-1,2,3-triazol-1-yl)ethoxy)ethoxy)ethoxy)propenamide [Compound 36]”, in the data set with MOLT4 cells, the “IKZF1, IKZF3 and ZFP91 levels, global proteomics” value is listed as “degradation”. Moreover, the “GSPT1 expression, global proteomics” value in the data set on MOLT4 cells (2 μM of MI1013) is “remains undegraded”.

The record behind these values is article PMC12305494, “Discovery of PXR Antagonist MI891 and PXR Degrader MI1013 and Their Roles in Hepatic Gene Regulation” (Journal of Medicinal Chemistry, 2025).
